The target in one experiment is protein kinase C. Briefly: Inhibition of protein kinase C activated with phosphatidylserine and diacylglycerol (in vitro enzyme assay). The settings on record: for IC50: activated with phosphatidylserine and diacylglycerol, read-out: Inhibiton (IC50) C-Kinase. It counts as biochemical.
Experiment [1] concerns the target T1, cAMP-dependent protein kinase (catalytic subunit) (Homo sapiens, UniProt P17612).
T1 construct: purchased
Briefly: cAMP-dependent protein kinase (A kinase) test, 32P-phosphate incorporation into histone. It counts as biochemical. As for the experimental part: (§1) The determination the inhibition of the cAMP- and of the cGMP-dependent protein kinase took place according to the test description below.
cAMP-dependent protein kinase: The measurement of the activity takes place with the commercially available catalytic subunits of the enzyme. The incorporation of phosphorus 32-labeled phosphate into histone is thereby measured. A reaction batch of 200 μL contains the following components: 50 mM PIPES-NaOH (pH 7.5), 10 mM magnesium chloride, 1 mM DTT, 40 μM ATP, as well as 50 μg histone H-2B. The test is carried out as in the case of G kinase. The reaction is thereby started by the addition of 6 units of the catalytic subunit of the cAMP-dependent protein kinase.

Experiment [2] addresses T2, cGMP-dependent protein kinase (Bos taurus, UniProt P00516).
T2 construct: The enzyme was obtained from bovine lung tissue and purified; from tissue; host or cells: bovine lung
T2 sequence (P00516 1-671): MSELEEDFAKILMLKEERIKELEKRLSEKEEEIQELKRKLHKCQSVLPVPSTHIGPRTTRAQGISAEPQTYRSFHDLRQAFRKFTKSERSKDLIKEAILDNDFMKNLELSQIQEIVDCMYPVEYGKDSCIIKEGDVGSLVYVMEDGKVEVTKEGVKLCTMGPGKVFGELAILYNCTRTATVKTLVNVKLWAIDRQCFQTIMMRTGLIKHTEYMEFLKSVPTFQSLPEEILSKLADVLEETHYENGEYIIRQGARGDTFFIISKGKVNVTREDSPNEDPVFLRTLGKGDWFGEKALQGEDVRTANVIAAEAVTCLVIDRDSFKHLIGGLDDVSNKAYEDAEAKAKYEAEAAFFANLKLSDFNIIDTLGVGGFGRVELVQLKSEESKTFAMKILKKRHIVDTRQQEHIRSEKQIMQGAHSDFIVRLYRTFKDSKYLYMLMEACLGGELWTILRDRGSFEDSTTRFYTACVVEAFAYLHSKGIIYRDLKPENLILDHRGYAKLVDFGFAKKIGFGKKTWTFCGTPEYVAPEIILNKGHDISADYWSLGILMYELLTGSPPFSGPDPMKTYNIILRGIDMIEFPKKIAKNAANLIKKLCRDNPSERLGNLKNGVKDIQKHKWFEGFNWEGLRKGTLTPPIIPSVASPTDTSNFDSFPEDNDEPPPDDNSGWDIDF
The experiment can be described thus: cGMP-dependent protein kinase (G kinase) test, 32P-phosphate incorporation into histone. It counts as biochemical, bovine. Here is the method:
as §1
cGMP-dependent protein kinase: The enzyme was obtained from bovine lung tissue and purified and its activity determined via the incorporation of phosphorus 32-labeled phosphate into histone. The following components are contained in a test batch of 200 μL: 20 mM Tris-HCl (pH 7.4), 5 mM magnesium chloride, 1 mM DTT, 10 μM ATP, […], 40 μg BSA, 2% glycerol, as well as 10 μg histone II-A and possibly the substance to be investigated. […] After incubating for 5 minutes at 30° C., the reaction is stopped by the addition of 10% trichloroacetic acid and the samples then filtered off over a nitrocellulose filter. The phosphate incorporation is determined by Cerenkov counting in a scintillation counter and the percentage inhibition calculated therefrom.

Where only a bound is given, the exact number is not on record here.

As usually defined, the IC50 is the concentration at which inhibition is half-maximal. `O=C1NC(=O)c2c1c1c3ccccc3n3c1c1c2c2ccccc2n1C1CCC3O1` [I, 9,10,11,12-tetrahydro-9,l2-epoxy-1H-diindolo[1,2,3-fg: 3',2',1',kl]pyrrolo[3,4-i][1,6]benzodiazocine-1,3(2H)-dione]: the results for the IC50 (on protein kinase C; in experiment [1]; in experiment [2]) were 28 nM, 5500 nM and 520 nM, respectively. Besides, the “Ratio IC50 kinase / IC50 C-Kinase, A/C” value in experiment [1] (A-kinase versus C-kinase) stood at 196. Further, the “Ratio IC50 kinase / IC50 C-Kinase, G/C” value in experiment [2] (G-kinase versus C-kinase) came to 19.
In the case of `O=C1c2c(c3c4ccccc4n4c3c3c2c2ccccc2n3C2CCC4O2)C(=O)N1Cc1ccccc1` [III], on protein kinase C, the IC50 is over 10000 nM. Further, in the experiment on protein kinase C (concentration of 10^-5 M, same conditions of the in vitro enzyme assay), the “inhibition of protein kinase C at a single concentration” value is “does not display a significant inhibition”.

Source of the values: patent US5043335A, “Indolocarbazoles and the use thereof” (Godecke Aktiengesellschaft, priority 1989, dated 1991).
